{"source": "patent US10889611B2", "about": "“Sialyltransferase inhibitors and uses thereof” (Academia Sinica, priority 2015, dated 2021)", "key": {"PANC-1 cells": {"system": "PANC-1 cells", "test": "SNA lectin staining of 2,6-sialylation by FACS in PANC-1 cells", "assay_type": "cell-based, human", "settings": "PANC-1 cells grown in fructose-containing medium, FIG. 3", "excerpt": "PANC-1 cells were first grown in glucose-containing or fructose-containing medium treated with or without the presence of the test compound (i.e., FCW34 or AL10, which was used as a positive control), then the cells were stained with SNA lectin to measure 2,6-sialylation level by FACS analysis."}, "[1]": {"biological_target": "T1, α2,3(N)-sialyltransferase ST3GALIII (Rattus norvegicus, UniProt Q02734)", "T1 construct": "purchased Calbiochem", "T1 sequence (Q02734 1-374)": "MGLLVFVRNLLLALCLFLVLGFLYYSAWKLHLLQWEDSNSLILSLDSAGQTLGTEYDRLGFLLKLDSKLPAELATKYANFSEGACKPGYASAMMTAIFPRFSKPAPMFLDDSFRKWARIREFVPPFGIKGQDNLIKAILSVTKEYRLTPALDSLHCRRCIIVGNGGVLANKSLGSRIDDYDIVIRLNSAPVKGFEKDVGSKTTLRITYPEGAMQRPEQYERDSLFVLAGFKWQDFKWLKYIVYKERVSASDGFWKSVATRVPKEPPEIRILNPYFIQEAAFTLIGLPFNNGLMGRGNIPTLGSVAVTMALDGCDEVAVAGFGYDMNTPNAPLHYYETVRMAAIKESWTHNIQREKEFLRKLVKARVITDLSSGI", "test": "Sialyltransferase activity assay, ST3GALIII", "assay_type": "biochemical", "settings": "α2,3-N-link; read-out: IC50 (μM) ST3GALIII"}, "[2]": {"biological_target": "T1, α2,3(N)-sialyltransferase ST3GALIII", "test": "Sialyltransferase activity assay, ST3GALIII", "assay_type": "biochemical", "settings": "calculated based on the concentration, of ST inhibitor used toward α2,3-O-ST3GALI, listed as 3 (FCW34)", "protocol": "The enzymes analyzed in the present study included rat ST3Gal(I), rat ST3Gal(III), and human ST6Gal(I). Rat ST3Gal(I) and rat ST3Gal(Ill), were purchased from Calbiochem®, while human ST6Gal(I) was purchased from RnDSystems.com.\n(§1) Sialyltransferase inhibition assay […] was performed as follows: Sialyltransferase activity was determined by measuring the level of the end product of sialylated saccharides with reverse-phase HPLC. The assay mixtures contained the following components: 200 mM MES buffer; 100 mM NaCl; 0.5 mM EDTA; 0.01% Triton X-100; 1.4 mU ST3GALI; 2.5 mM T-antigen; 1 mM CMP-Neu5Ac and different concentration of Sialyltransferase inhibitors to a total volume of 50 μl. The assay mixture was incubated at 37° C. for 15 mins and then quenched by heating up to 101′C for 10 mins. The sialylated product was resolved by reversed-phase HPLC. Kinetic data were obtained by fitting the initial rate data to the nonlinear regression equation.\nas §1, with “mU ST6GALI; 25 μM Galβ1-4GlcNAc;” for “mU ST3GALI; 2.5 mM T-antigen;”, “to 101° C.” for “to 101′C”, “product is” for “product was”, “resolved with” for “resolved by”\nEffects of the present compounds on the activity of sialyltransferase, including α2,3(N)-sialyltransferase ST3GALIII, α2,6(N)-sialyltransferases ST6GALI, and α2,3(O)-sialyltransferase ST3GALI, were determined in accordance with procedures described in the “Materials and Methods” section, and results are summarized in Table 1."}, "[3]": {"biological_target": "T2, α2,6(N)-sialyltransferases ST6GALI (Homo sapiens, UniProt P15907)", "T2 construct": "purchased RnDSystems.com (R&D Systems)", "T2 sequence (P15907 1-406)": "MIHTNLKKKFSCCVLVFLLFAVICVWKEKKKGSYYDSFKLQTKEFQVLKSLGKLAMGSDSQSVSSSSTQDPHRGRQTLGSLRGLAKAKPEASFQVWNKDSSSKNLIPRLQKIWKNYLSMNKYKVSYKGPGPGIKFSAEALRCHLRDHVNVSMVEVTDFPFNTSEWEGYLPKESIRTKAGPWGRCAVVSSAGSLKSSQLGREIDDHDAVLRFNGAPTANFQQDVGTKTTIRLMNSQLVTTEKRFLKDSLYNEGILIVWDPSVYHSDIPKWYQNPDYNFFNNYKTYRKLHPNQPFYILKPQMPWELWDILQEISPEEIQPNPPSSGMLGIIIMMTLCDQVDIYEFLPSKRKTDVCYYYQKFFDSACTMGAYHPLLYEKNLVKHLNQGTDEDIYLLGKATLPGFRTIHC", "test": "Sialyltransferase inhibition assay, ST6GALI (reverse-phase HPLC)", "assay_type": "biochemical", "procedure,_shortened": "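Human ST6GalI (1.4 mU) incubated 15 min at 37° C with 25 μM Galβ1-4GlcNAc, 1 mM CMP-Neu5Ac and inhibitor in 200 mM MES, 100 mM NaCl, 0.5 mM EDTA, 0.01% Triton X-100. Sialylated product quantified by reverse-phase HPLC; kinetics from nonlinear fitting of initial rates.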"}, "MDA-MB-231 cells": {"system": "MDA-MB-231 cells", "test": "Transwell migration assay, breast cancer cells", "assay_type": "cell-based, human", "excerpt": "Migration assays were done using a transwell, in which a polycarbonate filter pre-coated with Matrigel (8-μm pores, Millicell; Millipore, Billerica, Mass.) was inserted therein. […] Cells that had migrated to the underside of the inserted filter were stained with hematoxylin solution. The cells in the upper side of the inserted membrane were rubbed with a cotton swab. The migrated cells on the underside were pictured in a 200× magnification field and quantified."}, "PANC-1 pancreatic tumor": {"system": "PANC-1 pancreatic tumor", "test": "Inhibition of pancreatic tumor growth in SCID mice", "assay_type": "in vivo", "protocol": "SCID mice (6 weeks old) were orthotopically injected with 1×10^5 human pancreatic cells PANC-1 grown in glucose-containing or fructose-containing medium with or without the presence of the present compound (e.g., FCW34, 5 μM) on day 0. The progression of the tumor was followed by bioluminescence IVIS image analysis, and the test animals were then sacrificed by cervical dislocation after 14 weeks, and respective tumors and the liver sections were collected, and analyzed by histochemical staining with SNA lectin to measure 2,6-sialylation levels utilizing FACS analysis."}}, "note": "Marks after values point to notes of the source that are not given here."}
{"smiles": "C[C@H](CCC(=O)OCCOCCOCCN=[N+]=[N-])C1CC[C@H]2[C@@H]3CC[C@@H]4C[C@H](OC(=O)[C@H](CC(=O)O)Nc5ccc([N+](=O)[O-])c6nonc56)CC[C@]4(C)[C@H]3CC[C@]12C", "note": "(stereo partly drawn) [Compound 3, (3S)-4-(((3R,5R,8R,9S,10S,13R,14S)-17-((R)-5-(2-(2-(2-azidoethoxy)ethoxy)ethoxy)-5-oxopentan-2-yl)-10,13-dimethylhexadecahydro-1H-cyclopenta[a]phenanthren-3-yl)oxy)-3-((7-nitrobenzo[c][1,2,5]oxadiazol-4-yl)amino)-4-oxobutanoic acid]", "values": [{"measurement": "level of 2,6-sialylation", "setting": "PANC-1 cells", "value": "greatly reduced"}, {"measurement": "IC50", "setting": "[1]", "value": "1.74 ± 0.09", "unit": "µM"}, {"measurement": "selectivity ratio ST3GALI/ST3GALIII", "setting": "[2]; 500 μM", "value": ">287^d"}, {"measurement": "selectivity ratio ST3GALI/ST3GALIII", "setting": "[2]; 1 mM", "value": "(<575)^e"}, {"measurement": "selectivity ratio ST3GALI/ST6GALI", "setting": "[3]", "value": ">139"}, {"measurement": "IC50", "setting": "[3]; α2,6-N-link, read-out: IC50 (μM) ST6GALI", "value": "3.59 ± 0.38", "unit": "µM"}, {"measurement": "migration of MDA-MD-231 cells", "setting": "MDA-MB-231 cells; 20 μM, FIG. 1", "value": "inhibited the migration"}, {"measurement": "IC50", "setting": "MDA-MB-231 cells; Homo sapiens, MDA-MB-231, 16 h, read-out: IC50 on migration", "value": "10.64 ± 0.09", "unit": "µM"}, {"measurement": "metastatic lesions in livers (histological analysis)", "setting": "PANC-1 pancreatic tumor; PANC-1 cells grown in fructose-containing medium", "value": "suppressed"}, {"measurement": "progression of the tumor", "setting": "PANC-1 pancreatic tumor; PANC-1 cells pre-treated with FCW34, FIG. 5", "value": "halted significantly"}, {"measurement": "Liver lesions Incidence", "setting": "PANC-1 pancreatic tumor; mice bearing pancreatic cancer", "value": "0/3"}]}
